Measurements taken from patent US20260263450A1, “USE OF GLYT1 INHIBITOR IN TREATMENT OF ORGAN FIBROSIS” (TIANJIN MEDICAL UNIVERSITY, priority 2023, published 2026).

Assays:
A549 cells [1] = assay: Western blot of pulmonary fibrosis-related indicators in the in vitro bleomycin-induced pulmonary fibrosis model; type: cell-based; details: 25 μM BLM + 190 nM GLYT1 IN for 72 h; compared with BLM group
Experimental: A bleomycin-induced pulmonary fibrosis model was established in vitro, with simultaneous intervention via a GLYT1 inhibitor.
For the in vitro bleomycin-induced pulmonary fibrosis model, A549 cells were divided into […] treatment groups: the NC group (control group: treated with normal saline), the BLM group (bleomycin-treated group: treated with 25 μM BLM for 72 h), and the BLM+GLYT1 IN group (bleomycin and glycine transporter 1 inhibitor-treated group: treated with 25 μM BLM for 72 h and 190 nM GLYT1 IN for 72 h).
Western blotting was used to detect the expression levels of pulmonary fibrosis-related indicators: collagen type I alpha 1 (col1α1), collagen type III alpha 1 (col3α1), collagen type IV alpha 1 (col4α1), E-cadherin (E-Cad), and α-SMA proteins.

A549 cells [2] = assay: CCK-8 cell proliferation and cytotoxicity analysis of A549 cells; type: cell-based; details: 72 h
Text: A CCK-8 kit was used to detect cell proliferation and cytotoxicity. Its working principle is as follows: In the presence of an electron coupling reagent, WST-8 (chemical name: 2-(2-methoxy-4-nitrophenyl)-3-(4-nitrophenyl)-5-(2,4-disulfophenyl)-2H-tetrazolium monosodium salt) can be reduced by mitochondrial dehydrogenases to produce a highly water-soluble orange-yellow formazan product. The intensity of the color is proportional to cell proliferation and inversely proportional to cytotoxicity. […] The OD value measured at a wavelength of 450 nm via a microplate reader can indirectly reflect the number of viable cells.
The CCK-8 assay was used to detect the viability of A549 cells after treatment with different concentrations of BLM and GlyT1 inhibitor for 72 h. […] In this example, BLM, which maintained the viability of A549 cells at approximately 80%, was selected for stimulation, and A549 cells were stimulated with 25 μM BLM to establish the cell model. […] At a concentration of 380 nM, the viability of A549 cells was greater than 50%. To obtain stable experimental results more easily, 190 nM GLYT1 IN was selected as the treatment concentration in subsequent studies.

[3] = tested on: bleomycin-induced pulmonary fibrosis; assay: Bleomycin-induced pulmonary fibrosis in mice; type: in vivo, C57BL/6J male mice; details: for collagen deposition in lung tissue (Masson staining): 1 mg/kg and 5 mg/kg BLM; for body weight: inhibitor 0.79 mg/kg per day by gavage for 14 days from day 14 after modeling
Experimental: The dosage was 0.79 mg/kg per day, and the administration route was intragastric gavage. When used, the drug was dissolved in H2O containing 0.3% Tween 80.
C57BL/6J male mice (8-10 weeks old, weighing 24-25 g) were purchased from Beijing Huafukang Biotechnology Co., Ltd. The mice were housed in a specific pathogen-free (SPF) environment, with the room temperature maintained at 20-25° C. and the humidity controlled at 50-60%. The mice were fed normally, and the light was adjusted to a 12 h light/dark cycle. Before modeling, the mice were acclimatized to the corresponding environment for 1 week. All animal experiments were conducted in compliance with the animal care regulations and guidelines of Tianjin Medical University and were approved by the Animal Committee of Tianjin Medical University.
1. Prediluted bleomycin was prepared, and doses of 1 mg/kg and 5 mg/kg were administered on the basis of the body weights of the mice.
7. The mouse's tongue was gently pulled to one side toward the mandible with sterile padded forceps to expose the vocal cords; then, the pipette tip loaded with bleomycin was lowered to the back of the oral cavity, and the liquid was delivered through the vocal cords during inhalation. The sounds of wheezing were waited to confirm that the liquid was delivered into the trachea. For animals in the control group, an equal volume of sterile PBS was used instead of the bleomycin solution.
10. The mice were monitored daily until they were euthanized for analysis. RG1678 or water containing 0.3% Tween 80 was added to the mice by gavage every day according to their groupings.
11. When the experiment reached the appropriate time point, the mice were euthanized, their eyeballs were removed for blood collection, and then the mice were dissected to collect samples.
Mice in different groups were generated according to the abovementioned methods. The mice in the control group were given normal saline, while the mice in the experimental groups were given bleomycin at different concentrations. Fourteen days after modeling, the mice were intragastrically administered either ddH2O containing 0.3% Tween 80 or RG1678 prepared in ddH2O containing 0.3% Tween 80 via continuous gavage for 14 days; the specific experimental conditions are shown in Table 1.
1. Bleomycin stock solution (10 mg/mL): First, 10 mg of bleomycin was weighed and dissolved in 1 mL of 0.9% sodium chloride. The instillation volume for each mouse was calculated on the basis of its body weight, with the instillation volume per mouse being approximately 50 μL. The stock solution was diluted to 0.5 mg/mL and 2.5 mg/mL for subsequent instillation according to the different groups (1 mg/kg and 5 mg/kg).
3. RG1678 (0.79 mg/mL): An appropriate amount of RG1678 was dissolved in ddH2O containing 0.3% Tween 80 to prepare a stock working solution of 0.79 mg/mL. The intragastric administration volume was then calculated on the basis of the mouse's body weight, with approximately 200 μL per mouse. Before use, the stock solution was diluted to a working concentration of […].
The body weights of the mice were measured before modeling, and their body weights were monitored daily during the experiment to observe changes. A comparison was made between the body weight at the end of the experiment and that at the beginning.
To further observe lung tissue damage in mice in detail, pathological detection was performed on the mouse lung tissues in this example.
Masson staining was performed on mouse lung tissue sections. Masson staining is an experimental method used to detect the secretion and deposition levels of collagen fibers in tissues. After treatment with different staining solutions, the overall background of the tissue section appeared red, the cell nuclei were black, and the collagen fibers were blue. The content of collagen fibers can be evaluated on the basis of the depth of the blue color and the scope of its distribution. […]

[4] = intervention initiated 14 days after BLM modeling, lung paraffin sections
[5] = treatment for 14 days from day 14 after modeling, compared with BLM group

Molecule | E-cadherin protein expression level (A549 cells [1]) | col1α1 protein expression level (A549 cells [1]) | col3α1 protein expression level (A549 cells [1]) | col4α1 protein expression level (A549 cells [1]) | α-SMA protein expression level (A549 cells [1]) | viability of A549 cells (A549 cells [2]; human, 380 nM) | collagen deposition in lung tissue (Masson staining) ([3]; compared with BLM group, listed as GLYT1 IN) | collagen deposition in lung tissue (Masson staining) ([3]; compared with BLM group, listed as GlyT1 inhibitor 1) | body weight ([3]; BLM 1 or 5 mg/kg, compared with BLM group) | body weight ([3]; BLM 1 or 5 mg/kg, compared with BLM group, listed as GLYT1 IN) | change in lung weight/body weight ratio ([3]; BLM 1 or 5 mg/kg, inhibitor by gavage for 14 days from day 14 after modeling, compared with BLM group (**P<0.01, ***P<0.001)) | general condition changes after modeling (delayed responses, huddling, trembling, cyanosis, decreased food intake, wrinkled skin) ([3]; BLM+RG1678 group compared with BLM group) | BLM-induced lung tissue consolidation (HE staining) [3, 4] | degree of fibrosis (HE staining) [3, 4] | collagen deposition in lung tissue (Sirius Red staining) ([3]; intervention initiated 14 days after modeling, compared with BLM stimulation) | deposition of type I collagen in lung tissue (immunohistochemistry) [3, 5] | deposition of type III collagen in lung tissue (immunohistochemistry) [3, 5] | viability of A549 cells (A549 cells [2]; 10 μM bleomycin) | viability of A549 cells (A549 cells [2]; 25 μM BLM) | viability of A549 cells with increasing concentrations (A549 cells [2]; increasing concentrations)
C[C@H](Oc1ccc(S(C)(=O)=O)cc1C(=O)N1CCN(c2ncc(C(F)(F)F)cc2F)CC1)C(F)(F)F [RG1678] | significantly increased | significantly decreased | significantly decreased | significantly decreased | significantly decreased | greater than 50% | not obvious | significantly reduce | less pronounced decrease | significantly greater | significantly alleviated | milder degrees | reduced | significantly alleviated | significantly reduced | significantly lower | significantly lower | – | – | –
bleomycin | – | – | – | – | – | – | – | – | – | – | – | – | – | – | – | – | – | significantly affected | approximately 80% | decreased
